According to ChEMBL document CHEMBL5316345, “Discovery of the Potent and Selective MC4R Antagonist PF-07258669 for the Potential Treatment of Appetite Loss” (J Med Chem, 2023):

Tests used:
[1] = Metabolic stability in human hepatocyte assessed as intrinsic clearance measured per million cells HPLC/UV/MS analysis; type: ADME, cell-based; conditions: hepatocytes, read-out: CLH
[2] = Octanol-water distribution coefficient, logD of the compound at pH 7.4 by RP-HPLC analysis; type: physicochemical
Melanocortin receptor 4 [3] = target: T1, Melanocortin receptor 4 (Homo sapiens, UniProt P32245); assay: Antagonist activity at human MC4R in CHO cells measured for 24 hrs; type: cell-based
[4] = Efflux ratio of apparent permeability from basolateral to apical side over apical to basolateral side in MDCK-MDR1 cells; type: ADME, cell-based, Canis lupus familiaris; conditions: dog
Melanocortin receptor 4 [5] = target: T1, Melanocortin receptor 4; assay: Antagonist activity at human MC4R in CHO cells measured for 24 hrs in presence of alpha-MSH; type: cell-based
[6] = Lipophilicity, logD of compound at pH 7.4 by shake flask method; type: physicochemical; conditions: buffer
[7] = target: Voltage-gated inwardly rectifying potassium channel KCNH2 (Homo sapiens, UniProt Q12809); assay: Inhibition of hERG expressed in CHO cells stably at -80 mV holding potential by automated patch clamp method; type: toxicity, cell-based
[8] = Metabolic stability in human hepatocyte assessed as intrinsic clearance measured per 10^6 cells HPLC/UV/MS analysis; type: ADME, cell-based; conditions: hepatocytes, read-out: CLH
Cytochrome P450 3A = Cytochrome P450 3A (Homo sapiens, UniProt P08684+P20815+Q9HB55+P24462); assay: Time dependent inhibition of CYP3A (unknown origin) at 10 uM relative to control; type: ADME, protein assay
Melanocortin receptor 4 [9] = target: T1, Melanocortin receptor 4; assay: Antagonist activity at human MC4R expressed in CHO cells assessed as decrease in alpha-MSH induced cAMP level incubated for 1 hr by microplate reader analysis; type: functional, cell-based

T1 sequence (P32245 whole entry): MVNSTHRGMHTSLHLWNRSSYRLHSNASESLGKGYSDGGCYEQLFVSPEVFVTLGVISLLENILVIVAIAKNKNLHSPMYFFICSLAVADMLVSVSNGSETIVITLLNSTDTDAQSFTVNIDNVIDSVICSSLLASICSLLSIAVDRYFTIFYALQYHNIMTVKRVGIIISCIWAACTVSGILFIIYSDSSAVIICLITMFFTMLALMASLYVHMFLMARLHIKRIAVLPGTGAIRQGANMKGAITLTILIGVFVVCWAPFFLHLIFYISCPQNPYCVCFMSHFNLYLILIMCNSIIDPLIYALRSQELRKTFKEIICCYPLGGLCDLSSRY
Voltage-gated inwardly rectifying potassium channel KCNH2, sequence (Q12809 whole entry): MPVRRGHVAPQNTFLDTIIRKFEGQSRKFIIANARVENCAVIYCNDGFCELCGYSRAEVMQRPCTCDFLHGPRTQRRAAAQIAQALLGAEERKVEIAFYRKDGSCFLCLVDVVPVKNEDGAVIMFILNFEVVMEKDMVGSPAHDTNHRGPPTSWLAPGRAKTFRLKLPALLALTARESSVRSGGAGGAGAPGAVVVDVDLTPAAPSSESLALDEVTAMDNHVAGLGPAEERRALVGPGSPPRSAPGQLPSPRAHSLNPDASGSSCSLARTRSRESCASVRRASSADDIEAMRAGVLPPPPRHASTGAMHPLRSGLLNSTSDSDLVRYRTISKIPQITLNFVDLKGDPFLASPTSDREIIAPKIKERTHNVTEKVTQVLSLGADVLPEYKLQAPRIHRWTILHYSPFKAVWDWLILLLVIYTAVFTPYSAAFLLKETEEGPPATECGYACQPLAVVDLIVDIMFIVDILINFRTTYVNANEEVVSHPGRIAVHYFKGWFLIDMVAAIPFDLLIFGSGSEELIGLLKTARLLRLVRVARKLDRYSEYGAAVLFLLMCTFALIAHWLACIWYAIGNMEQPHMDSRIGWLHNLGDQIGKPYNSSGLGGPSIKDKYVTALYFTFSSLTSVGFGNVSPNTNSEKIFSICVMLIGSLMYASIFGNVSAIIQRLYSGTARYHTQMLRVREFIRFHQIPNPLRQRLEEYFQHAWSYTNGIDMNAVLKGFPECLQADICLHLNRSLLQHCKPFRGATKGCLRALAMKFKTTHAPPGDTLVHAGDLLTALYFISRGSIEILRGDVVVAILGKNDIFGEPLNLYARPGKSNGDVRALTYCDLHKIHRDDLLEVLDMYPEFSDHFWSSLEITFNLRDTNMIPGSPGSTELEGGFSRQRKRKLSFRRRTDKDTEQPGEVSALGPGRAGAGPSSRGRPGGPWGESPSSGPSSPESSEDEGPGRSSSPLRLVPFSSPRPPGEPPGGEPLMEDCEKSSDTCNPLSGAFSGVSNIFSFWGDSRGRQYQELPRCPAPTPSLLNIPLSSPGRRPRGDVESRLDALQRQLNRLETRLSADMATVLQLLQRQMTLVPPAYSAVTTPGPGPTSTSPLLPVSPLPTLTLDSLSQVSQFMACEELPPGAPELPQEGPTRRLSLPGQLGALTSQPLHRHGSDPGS

**Q.** What does the source list for `COc1cc(CC(=O)N2CC[C@H](Nc3ccc(-c4nc(C(F)(F)F)n(C)n4)c(C)n3)C2)cc(OC)c1`?
**A.** hepatocyte CLint [1]: 34 µL/min/1e6 cells; logD [2]: 3.6

**Q.** With `Cc1nc2c(cc1-c1cnn(C)c1)CC[C@@]1(CCN(C(=O)Cc3ccc(F)cc3)C1)N2` as the molecule, how does the hepatocyte CLint [1] read?
**A.** 6.5 µL/min/1e6 cells

**Q.** And the IC50 (Melanocortin receptor 4 [3])?
**A.** 0.039 µM

**Q.** And the Ratio [4]?
**A.** 18

**Q.** What about the Ki (Melanocortin receptor 4 [5]) of the same molecule?
**A.** 0.0006 µM

**Q.** What about the logD [6] of the same molecule?
**A.** 2.6

**Q.** With `COc1ccc2nc(N[C@H]3CCN(C(=O)Cc4cc(F)cc(F)c4)C3)c(C)cc2c1` as the molecule, how does the Ki (Melanocortin receptor 4 [5]) read?
**A.** 0.91 µM

**Q.** With `COc1cc([C@@H](C)C(=O)N2CC[C@@]3(CCc4cc(-c5nc(C(F)F)n(C)n5)c(C)nc4N3)C2)c(F)cn1` as the molecule, how does the hepatocyte CLint [1] read?
**A.** 11 µL/min/1e6 cells

**Q.** What about the Ratio [4] of the same molecule?
**A.** 8.7

**Q.** What about the Ki (Melanocortin receptor 4 [5]) of the same molecule?
**A.** 0.00049 µM

**Q.** And the logD [6]?
**A.** 3.2

**Q.** What does the source list for `COc1cc([C@@H](C)C(=O)N2CC[C@H](Nc3ccc(-c4nc(C(F)F)n(C)n4)c(C)n3)C2)ccn1`?
**A.** hepatocyte CLint [1]: 10 µL/min/1e6 cells; Ratio [4]: 16; Ki (Melanocortin receptor 4 [5]): 0.0014 µM; logD [6]: 2.7

**Q.** Which logD [2] does the source give for `Cc1nc2c(cc1-c1cnn(C)c1)CC1(CCN(C(=O)Cc3ccc(F)cc3)C1)N2` (racemic) here?
**A.** 1.9

**Q.** What about the IC50 (Melanocortin receptor 4 [3]) of the same molecule?
**A.** 20 µM

**Q.** What about the Ratio [4] of the same molecule?
**A.** 34

**Q.** What about the Ki (Melanocortin receptor 4 [5]) of the same molecule?
**A.** > 2.2 µM

**Q.** Which results are given for `COc1cc([C@@H](C)C(=O)N2CC[C@H](Nc3ccc(-c4nc(C(F)F)n(C)n4)c(C)n3)C2)c(F)cn1`?
**A.** hepatocyte CLint [1]: 15 µL/min/1e6 cells; logD [2]: 3.4; IC50 [7]: 25 µM; hepatocyte CLint [8]: 15 µL/min/1e6 cells; K (Cytochrome P450 3A): 0.015 min⁻¹

**Q.** With `COc1ccc2nc(N(C(=O)Cc3cc(F)cc(F)c3)[C@H]3CCNC3)ccc2c1` as the molecule, how does the IC50 (Melanocortin receptor 4 [3]) read?
**A.** 0.0038 µM

**Q.** For `COc1cc(CC(=O)N2CC[C@H](Nc3ccc(-c4nc(C(F)F)n(C)n4)c(C)n3)C2)ccn1`, which hepatocyte CLint [1] is on record?
**A.** 7.1 µL/min/1e6 cells

**Q.** And the Ki (Melanocortin receptor 4 [5])?
**A.** 0.027 µM

**Q.** What does the source list for `COc1ccc2nc(N[C@H]3CCN(C(=O)Cc4cc(F)cc(F)c4)C3)ccc2c1`?
**A.** IC50 (Melanocortin receptor 4 [9]): 0.36 µM; IC50 (Melanocortin receptor 4 [3]): 0.0078 µM; Ratio [4]: 8.6; IC50 [7]: 0.36 µM; hepatocyte CLint [8]: 28 µL/min/1e6 cells; Ki (Melanocortin receptor 4 [5]): 0.00062 µM; K (Cytochrome P450 3A): 0.61 min⁻¹

**Q.** For `Cc1nc(N[C@H]2CCN(C(=O)Cc3ccc(F)cc3)C2)ccc1-c1ncn(C)n1`, which IC50 (Melanocortin receptor 4 [3]) is on record?
**A.** 0.24 µM

**Q.** What about the Ratio [4] of the same molecule?
**A.** 19

**Q.** What about the hepatocyte CLint [8] of the same molecule?
**A.** 4.5 µL/min/1e6 cells

**Q.** What about the Ki (Melanocortin receptor 4 [5]) of the same molecule?
**A.** 0.019 µM

**Q.** And the K (Cytochrome P450 3A)?
**A.** 0.007 min⁻¹

**Q.** For `COc1cc([C@@H](C)C(=O)N2CC[C@@]3(CCc4cc(-c5nc(C(F)(F)F)n(C)n5)c(C)nc4N3)C2)c(F)cn1`, which hepatocyte CLint [1] is on record?
**A.** 12 µL/min/1e6 cells

**Q.** And the IC50 (Melanocortin receptor 4 [3])?
**A.** 0.0084 µM

**Q.** What about the Ratio [4] of the same molecule?
**A.** 4.8

**Q.** And the Ki (Melanocortin receptor 4 [5])?
**A.** 0.00045 µM

**Q.** Which results are given for `Cc1nc(N[C@H]2CCN(C(=O)Cc3ccc(F)cc3)C2)ccc1-c1nc(C(F)(F)F)n(C)n1`?
**A.** IC50 (Melanocortin receptor 4 [3]): 0.21 µM; Ratio [4]: 6.1; IC50 [7]: 78 µM; hepatocyte CLint [8]: 20 µL/min/1e6 cells; Ki (Melanocortin receptor 4 [5]): 0.0055 µM; K (Cytochrome P450 3A): 0.006 min⁻¹

**Q.** What does the source list for `[2H]C([2H])([2H])n1nc(-c2ccc(N[C@H]3CCN(C(=O)[C@H](C)c4cc(OC)ncc4F)C3)nc2C)nc1C(F)F`?
**A.** IC50 [7]: 28 µM; hepatocyte CLint [8]: 18 µL/min/1e6 cells

**Q.** Which results are given for `COc1cc([C@@H](C)C(=O)N2CC[C@H](Nc3ccc(-c4ncccn4)c(C)n3)C2)c(F)cn1`?
**A.** hepatocyte CLint [1]: 7.9 µL/min/1e6 cells; Ratio [4]: 4.9; Ki (Melanocortin receptor 4 [5]): 0.0064 µM; logD [6]: 2.6

**Q.** Which IC50 [7] does the source give for `COc1cc([C@@H](C)C(=O)N2CC[C@H](Nc3ccc(-c4n[nH]c(C(F)F)n4)c(C)n3)C2)c(F)cn1` here?
**A.** 19 µM

**Q.** And the hepatocyte CLint [8]?
**A.** 7.5 µL/min/1e6 cells

**Q.** And the Ki (Melanocortin receptor 4 [5])?
**A.** 0.062 µM

**Q.** Which results are given for `Cc1nc2c(cc1-c1cnn(C)c1)OC[C@@]1(CCN(C(=O)Cc3ccc(F)cc3)C1)N2`?
**A.** hepatocyte CLint [1]: 4.9 µL/min/1e6 cells; logD [2]: 2.4

**Q.** For `COc1cc([C@@H](C)C(=O)N2CC[C@H](Nc3ccc(-c4nc(C(F)(F)F)n(C)n4)c(C)n3)C2)c(F)cn1`, which hepatocyte CLint [1] is on record?
**A.** 15 µL/min/1e6 cells

**Q.** What about the logD [2] of the same molecule?
**A.** 4.2

**Q.** What about the Ratio [4] of the same molecule?
**A.** 6.1
